{
  "source": "patent US9661851B1",
  "about": "“Synergistic herbicidal composition and use thereof” (ROTAM AGROCHEM INTERNATIONAL COMPANY LIMITED, priority 2015, dated 2017)",
  "origin": "cited, not measured here",
  "conditions": "hydrolysis in water, storage with moisture, in formulations; stated with reference to U.S. Ser. No. 14/957,768",
  "data": [
    {"smiles": "COC(=O)c1ccc(CNS(C)(=O)=O)c(S(=O)(=O)NC(=O)Nc2nc(OC)cc(OC)n2)c1", "note": "[crystalline modification I of mesosulfuron-methyl] [methyl 2-[(4,6-dimethoxypyrimidin-2-ylcarbamoyl)sulfamoyl]-α-(methanesulfonamido)-p-toluate]", "values": [
      {"measurement": "stability", "result": "improved stability"}
    ]},
    {"smiles": "COC(=O)c1ccc(CNS(C)(=O)=O)c(S(=O)(=O)NC(=O)Nc2nc(OC)cc(OC)n2)c1", "note": "[mesosulfuron-methyl in the amorphous state] [methyl 2-[(4,6-dimethoxypyrimidin-2-ylcarbamoyl)sulfamoyl]-α-(methanesulfonamido)-p-toluate]", "values": [
      {"measurement": "stability", "result": "highly unstable"}
    ]}
  ]
}
